Results as given in US20230312587A1, “PTERIDINONE COMPOUNDS AND USES THEREOF” (Vertex Pharmaceutical Incorporated, priority 2018, published 2023).

Key:
[1] = test system: HepG2 cells with CRISPR/Cas9 mediated WFS1 knockout (KO); experiment: Calcium flux in parental HepG2 vs HepG2 WFS1 knockout cells; type: cell-based; conditions: 30 minutes after compound addition
Text: A double cleavage strategy was employed to remove large fragments from the WFS1 locus. Suitable target sites in WFS1 exon 8 were first selected using CRISPR design software to rank suitable target sites and computationally predict off-target sites for each intended target. Six top guide RNA sequences are identified and screened for activity using the Surveyor Mutation Detection Kit (Integrated DNA Technologies). Then, the best 2 guide RNAs were cloned into GeneArt OFP CRISPR nuclease vectors (Thermofisher, Cat #A21174) separately and co-transfected into HepG2 cells using nucleofection (4D Nucleofector X, Lonza). Cells were sorted by FACS 48 hrs later to enrich for the OFP positive cell population. The OFP positive cell population were plated into 96-well plates at 0.5-5 cells/well to isolate clonal cell lines. After allowing cells to expand for 2-3 weeks, plates were inspected for presence of colonies. When colonies became more than 70% confluent, they were dissociated with trypsin and were further expanded. Cell clones with homozygous double cleavage of WFS1 exon 8 were detected with PCR and confirmed with DNA sequencing.

Row | melting point [°C] | SMILES | effect of WFS1 depletion on ability to induce calcium flux [1]
1 | 136 to 138 | COc1c(F)cc(Cn2cc(CNc3nc(C)c4c(n3)N(C)[C@@H](C)C(=O)N4)cn2)cc1F [Compound 46, (7S)-2-(((1-(3,5-difluoro-4-methoxybenzyl)-1H-pyrazol-4-yl)methyl)amino)-4,7,8-trimethyl-7,8-dihydropteridin-6(5H)-one] | 
2 |  | Cc1nc(NCc2cnn(Cc3ccc(C(F)(F)F)nc3)c2)nc2c1NC(=O)[C@H](C)N2C [Compound 136, (7S)-4,7,8-trimethyl-2-(((1-((6-(trifluoromethyl)pyridin-3-yl)methyl)-111-pyrazol-4-yl)methyl)amino)-7,8-dihydropteridin-6(5H)-one] | completely eliminated
